Reference: patent publication US9586880B2, “Small molecule inhibitors of necroptosis” (President and Fellows of Harvard College, priority 2008, dated 2017)

Experiments:
[1] = system: FADD-deficient variant of human Jurkat T cells; experiment: TNF-α induced necroptosis inhibition, ATP-based viability assessment; type: cell-based; details: 10 ng/mL human TNF-α, 24 hours, CellTiter-Glo viability; for EC50: Jurkat
Experimental: (§1) Evaluation of necroptosis inhibitory activity was performed using a FADD-deficient variant of human Jurkat T cells or with L929 cells treated with TNF-α as previously described (Degterev et al., Nat. Chem. Biol. 1:112 (2005) and Jagtap et al., J. Med. Chem. 50: 1886 (2007)). Utilizing these conditions the cells efficiently underwent necroptosis. For EC50 value determinations, cells were treated with 10 ng/mL of human TNF-α in the presence of increasing concentration of test compounds for 24 hours followed by ATP-based viability assessment.
(§2) ATP-based viability assessment: Briefly, necroptosis activity was performed using a FADD-deficient variant of human Jurkat T cells or L929 cells treated with TNF-α. For EC50 value determinations, cells (500,000 cells/mL, 100 μL per well in a 96-well plate) were treated with 10 ng/mL of human TNF-α in the presence of increasing concentration of test compounds for 24 hours at 37° C. in a humidified incubator with 5% CO2 followed by ATP-based viability assessment. Stock solutions (30 mM) in DMSO were initially prepared and then diluted with DMSO to give testing solutions, which were added to each test well. The final DMSO concentration was 0.5%. Eleven compound test concentrations (0.030-100 μM) were used. Each concentration was done in duplicate.
(§3) Cell viability assessments were performed using a commercial luminescent ATP-based assay kit (CellTiter-Glo, Promega, Madison, Wis.) according to the manufacturer's instructions. Briefly, 40 μL of the cell lysis/ATP detection reagent was added to each well. Plates were incubated on a rocking platform for 10 minutes at room temperature and luminescence was measured using a Wallac Victor 3 plate-reader (Perkin Elmer, Wellesley, Mass.). Cell viability was expressed as a ratio of the signal in the well treated with TNF-α and compound to the signal in the well treated with compound alone. This was done to account for nonspecific toxicity, which in most cases was <10%. EC50 values were calculated using nonlinear regression analysis of sigmoid dose-response (variable slope) curves from plots of log [I] verses viability values.

[2] = system: L929 cells; experiment: as above; type: cell-based; details: 10 ng/mL human TNF-α, 24 hours, CellTiter-Glo viability; for EC50: Mus musculus, L929
Experimental: as §1, §2, §3

Row | Structure (SMILES) | EC50 [1] [nM] | EC50 Fadd −/− Jurkat [1] | also measured
1 | COc1cc(C2CC(=O)NC(SCC(=O)Nc3nccs3)=C2C#N)cc(OC)c1OC (stereo not drawn) [(1)] | 477 | – | EC50 [2]: 197 nM
2 | N#CC1=C(SCC(=O)Nc2nccs2)NC(=O)CC1c1ccccc1F (stereo not drawn) [(2)] | 769 | – | –
3 | N#CC1=C(SCC(=O)Nc2nccs2)NC(=O)CC1c1ccc(Cl)cc1 (stereo not drawn) [(3)] | 823 | – | –
4 | COc1ccc(C2CC(=O)NC(SCC(=O)Nc3nccs3)=C2C#N)cc1OC (stereo not drawn) [(4)] | 354 | – | –
5 | COC(=O)C1C(=O)NC(SCC(=O)Nc2nccs2)=C(C#N)C1c1ccc(Cl)cc1 (stereo not drawn) [(5)] | 25000 | – | –
6 | N#CC1=C(SCC(=O)Nc2nccs2)NC(=O)CC1c1ccccc1 (stereo not drawn) [(6)] | – | Partial activity | –
7 | COc1ccccc1C1CC(=O)NC(SCC(=O)Nc2nccs2)=C1C#N (stereo not drawn) [(7)] | 2380 | – | –
8 | N#CC1=C(SCC(N)=O)NC(=O)CC1c1ccccc1 (stereo not drawn) [(8)] | – | inactive | –
9 | COc1ccc(NC(=O)CSC2=C(C#N)C(c3cc(OC)c(OC)c(OC)c3)CC(=O)N2)cc1 (stereo not drawn) [(9)] | – | inactive | –
10 | COc1cc(C2CC(=O)NC(SCC(=O)Nc3ccccc3)=C2C#N)cc(OC)c1OC (stereo not drawn) [(10)] | – | inactive | –
11 | COc1cc(C2CC(=O)NC(SCC(=O)Nc3ccc(F)cc3)=C2C#N)cc(OC)c1OC (stereo not drawn) [(11)] | – | inactive | –
12 | COc1cc(C2CC(=O)NC(SCC(=O)Nc3c(C)cc(C)cc3C)=C2C#N)cc(OC)c1OC (stereo not drawn) [(12)] | – | inactive | –
13 | O=C(Nc1ccccc1)N1N=CCC1c1ccccc1 (stereo not drawn) [(17)] | – | inconclusive | –
14 | CCN1CCN(CC(=O)N2N=CCC2c2ccccc2)CC1 (stereo not drawn) [(18)] | 410 | – | –
15 | Cc1ccc(C(=O)C2=NNCC2c2ccccc2)cc1 (stereo not drawn) [(19)] | 369 | – | –
16 | O=C(CSc1ccc(Cl)cc1)N1N=CCC1c1ccccc1 (stereo not drawn) [(20)] | 3210 | – | –
17 | O=C(CSc1nc2ccccc2s1)N1N=CCC1c1ccccc1 (stereo not drawn) [(21)] | 1560 | – | –
18 | Clc1ccc(-c2cc[nH]n2)cc1 [(22)] | – | Inactive | –
19 | CCOC(=O)C1NN=C(C(=O)c2ccccc2)C1c1ccccc1 (stereo not drawn) [(23)] | – | Inactive | –
20 | CCOC(=O)C1=NNC(C(=O)c2ccccc2)C1c1ccc(Cl)cc1 (stereo not drawn) [(24)] | – | Inactive | –
21 | Cn1ccnc1SCC(=O)N1N=CCC1c1ccccc1 (stereo not drawn) [(25)] | – | Inactive | –
22 | Cc1ccc2nc(SCC(=O)N3N=CCC3c3ccccc3)nc(C)c2c1 (stereo not drawn) [(26)] | – | Inactive | –
23 | C#CC1(O)c2ccccc2C=Cc2ccccc21 [(28)] | 2980 | – | –

Row | Structure (SMILES) | EC50 [1] [nM] | EC50 Fadd −/− Jurkat [1] | also measured
24 | C#CC(O)(c1ccccc1)c1ccccc1 [(29)] | 31800 | – | –
25 | CCC1(O)c2ccccc2CCc2ccccc21 [(30)] | 5830 | – | –
26 | C=CC1(O)c2ccccc2CCc2ccccc21 [(31)] | 2950 | – | –
27 | C#CC1(O)c2ccccc2CCc2ccc(F)cc21 (stereo not drawn) [(32)] | 2000 | – | –
28 | C#CC1(O)c2ccccc2CCc2c(F)cccc21 (stereo not drawn) [(33)] | 4790 | – | –
29 | C#CC1(O)CCCCCC1 [(34)] | – | Inactive | –
30 | C#CC1(O)c2ccccc2-c2ccccc21 [(35)] | – | Inactive | –
31 | C#CC1(OC)c2ccccc2CCc2ccccc21 [(36)] | – | Inactive | –
32 | C=C(Br)C1(Br)c2ccccc2CCc2ccccc21 [(37)] | – | Inactive | –
33 | C=C(Cl)C1(Cl)c2ccccc2CCc2ccccc21 [(38)] | – | Inactive | –
34 | OC1(C#CBr)c2ccccc2CCc2ccccc21 [(39)] | – | Inactive | –
35 | CC#CC1(O)c2ccccc2CCc2ccccc21 [(40)] | – | Inactive | –
36 | C#CC1(O)c2ccccc2CCc2c1ccc1ccccc21 (stereo not drawn) [(41)] | – | Inactive | –
37 | C#CC1(O)c2cc(I)ccc2CCc2ccc(I)cc21 [(42)] | – | Inactive | –
38 | C#CC1(O)c2cc([N+](=O)[O-])ccc2CCc2ccc([N+](=O)[O-])cc21 [(43)] | – | Inactive | –
39 | C#CC1(O)c2ccccc2CCc2ccc(Br)cc21 (stereo not drawn) [(44)] | – | Inactive | –
40 | C#CC1(O)c2ccccc2CCc2ccc(Cl)cc21 (stereo not drawn) [(45)] | – | Inactive | –
41 | C#CC1(O)c2ccccc2CCc2ccc(C)cc21 (stereo not drawn) [(46)] | – | Inactive | –
42 | CC(C)(O)C#CC1(O)c2ccccc2CCc2ccccc21 [(47)] | – | Inactive | –
43 | Cc1sc2ncn(Cc3ccccc3)c(=O)c2c1C [(49)] | 3800 | – | –
44 | O=c1c2c3c(sc2ncn1Cc1cccc2cccnc12)CCC3 [(50)] | > 30000 | – | –
45 | COc1ccc(F)cc1Cn1cnc2sc3c(c2c1=O)CCC3 [(51)] | 10900 | – | –
46 | COc1ccc(Cn2cnc3sc4c(c3c2=O)CCC4)cc1F [(52)] | 3050 | – | –

Row | Structure (SMILES) | EC50 [1] [nM] | EC50 Fadd −/− Jurkat [1] | also measured
47 | O=c1c2c3c(sc2ncn1Cc1cccc2ccccc12)CCC3 [(53)] | > 30000 | – | –
48 | N#Cc1ccc(Cn2cnc3sc4c(c3c2=O)CCC4)cc1 [(54)] | 861 | – | –
49 | O=c1cc(Cn2cnc3sc4c(c3c2=O)CCC4)c2ccccc2[nH]1 [(55)] | > 30000 | – | –
50 | O=c1c2ccccc2ncn1Cc1ccc(Cl)cc1 [(56)] | > 30000 | – | –
51 | O=c1c2c3c(sc2ncn1Cc1c(Cl)cccc1Cl)CCC3 [(57)] | 936 | – | –
52 | CCSCC(=O)Nc1ccc(F)cc1 [(64)] | 14100 | – | EC50 L929 [2]: Inactive
53 | Cc1ccc(Cn2ncc3ccccc32)cc1 [(65)] | 3620 | – | EC50 L929 [2]: Inactive
54 | Cc1ccc(CN(C)C(=O)C2CCCCC2)o1 [(66)] | 2620 | – | EC50 [2]: 47100 nM
55 | CNC(Cc1ccccc1)=C1C(=O)CC(C)(C)CC1=O [(67)] | 2240 | – | EC50 [2]: 10000 nM
56 | CNS(=O)(=O)c1cccc(C(=O)OCC(=O)N2CCCc3ccccc32)c1 [(68)] | 1630 | – | EC50 L929 [2]: Inactive
57 | O=C(NCc1cccs1)C1CCCCC1 [(69)] | 7720 | – | EC50 L929 [2]: Inactive
58 | Cc1s/c(=N\C(=O)C2=NNC(=O)CC2)[nH]c1-c1ccc(F)cc1 [(70)] | 908 | – | EC50 L929 [2]: Inactive
59 | CC(C)(C)OC(=O)Nc1ccc(-c2cc[nH]n2)cc1 [Compound (13)] | 5380 | – | EC50 [2]: 890 nM
60 | O=C(N1N=CCC1c1ccccc1)C12CC3CC(CC(C3)C1)C2 (stereo not drawn) [Compound (14)] | 410 | – | EC50 [2]: 4200 nM
61 | O=C(C1=NNCC1c1ccccc1)c1ccccc1 (stereo not drawn) [Compound (15)] | 369 | – | EC50 [2]: 4020 nM
62 | O=C(CSc1nnnn1-c1ccccc1)N1N=CCC1c1ccccc1 (stereo not drawn) [Compound (16)] | 629 | – | EC50 [2]: 73000 nM
63 | C#CC1(O)c2ccccc2CCc2ccccc21 [Compound (27)] | 3230 | – | EC50 [2]: 659 nM
64 | O=c1c2c3c(sc2ncn1Cc1ccccc1)CCC3 [Compound (48)] | 216 | – | EC50 [2]: 8660 nM
65 | CCN(CC)S(=O)(=O)c1ccc(C(=O)/N=c2\[nH]ccs2)cc1 [Compound (58)] | 8960 | – | EC50 [2]: 1110 nM
66 | O=C1NC(Cc2c[nH]c3ccccc23)C(=O)N1Cc1ccc(Cl)cc1 (stereo not drawn) [Compound (59)] | 343 | – | EC50 [2]: 7460 nM
67 | O=C(C1COc2ccccc2O1)N1CCc2ccccc21 (stereo not drawn) [Compound (60)] | 629 | – | EC50 [2]: 23000 nM
68 | O=C(COc1ccccc1)N1CCc2ccccc21 [Compound (61)] | – | Inactive | –
69 | c1ccc(C2CC3CC4(CCCC4)N2O3)cc1 (stereo not drawn) [Compound (62)] | 668 | – | EC50 [2]: 10100 nM
